Values joined by “and” are separate entries in the source; they are usually repeats but may differ in a detail not shown here. Equal entries are not always repeated. Inconclusive results and toxic doses are left out. Cut-off read from the data, not from the text of the source: active = T/C of 150% or more; inactive = T/C below 125%.
System: L1210 leukemia ip in BDF1 mice, survival T/C
Assay: NCI In Vivo Anticancer Drug Screen. Data for tumor model L1210 Leukemia (intraperitoneal) in B6D2F1 (BDF1) mice
Settings: endpoint: mean survival time, higher = longer survival
How it was run: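 In this screen, tumor-bearing mice given compound are compared to those given vehicle, and their survival values are reported as a treated-to-control quotient.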

[1] = dose: 100.0 mg/kg/injection, schedule: Q04DX003 (ip), vehicle: saline
[2] = dose: 100.0 mg/kg/injection, schedule: Q04DX003 (ip), vehicle: saline with Tween-80
[3] = dose: 200.0 mg/kg/injection, schedule: Q04DX003 (ip), vehicle: saline with Tween-80
[4] = dose: 400.0 mg/kg/injection, schedule: Q04DX003 (ip), vehicle: saline with Tween-80
[5] = dose: 100.0 mg/kg/injection, schedule: Q01DX001 (ip), vehicle: saline with Tween-80
[6] = dose: 200.0 mg/kg/injection, schedule: Q01DX001 (ip), vehicle: saline with Tween-80
[7] = dose: 400.0 mg/kg/injection, schedule: Q01DX001 (ip), vehicle: saline with Tween-80
[8] = dose: 100.0 mg/kg/injection, schedule: Q04DX002 (ip), vehicle: saline with Tween-80
[9] = dose: 200.0 mg/kg/injection, schedule: Q04DX002 (ip), vehicle: saline with Tween-80
[10] = dose: 400.0 mg/kg/injection, schedule: Q04DX002 (ip), vehicle: saline with Tween-80

Measured: T/C

CC/C(C[n+]1ccccc1)=N\Nc1ccc([N+](=O)[O-])cc1[N+](=O)[O-]
inactive: dose: 5.0 mg/kg/injection, schedule: Q01DX001 (ip), vehicle: acetone 102 % of control | dose: 10.0 mg/kg/injection, schedule: Q01DX001 (ip), vehicle: acetone 100 % of control | dose: 20.0 mg/kg/injection, schedule: Q01DX001 (ip), vehicle: acetone 103 % of control | dose: 20.0 mg/kg/injection, schedule: Q04DX003 (ip), vehicle: saline 103 % of control | dose: 40.0 mg/kg/injection, schedule: Q01DX001 (ip), vehicle: acetone 108 % of control | dose: 40.0 mg/kg/injection, schedule: Q04DX003 (ip), vehicle: saline 95 % of control | dose: 80.0 mg/kg/injection, schedule: Q01DX001 (ip), vehicle: acetone 100 % of control

COC1C(O)C(C)OC(O[C@@H]2C[C@H]3CC[C@@H]4[C@H](CC[C@]5(C)[C@@H](C6=CC(=O)OC6)CC[C@]45O)[C@@]3(C)[C@H](O)C2)C1O (stereo not given in full)
inactive: dose: 0.63 mg/kg/injection, schedule: Q01DX001 (ip), vehicle: saline 103 % of control | dose: 1.25 mg/kg/injection, schedule: Q01DX001 (ip), vehicle: saline 101 % of control | dose: 2.5 mg/kg/injection, schedule: Q01DX001 (ip), vehicle: saline 97 % of control | dose: 5.0 mg/kg/injection, schedule: Q01DX001 (ip), vehicle: saline 94 % of control | dose: 10.0 mg/kg/injection, schedule: Q01DX001 (ip), vehicle: saline 103 % of control | dose: 20.0 mg/kg/injection, schedule: Q01DX001 (ip), vehicle: saline 106 % of control | dose: 40.0 mg/kg/injection, schedule: Q01DX001 (ip), vehicle: saline 111 % of control | dose: 80.0 mg/kg/injection, schedule: Q01DX001 (ip), vehicle: saline 101 % of control

CN(C)/C=N/n1cnc2c(ncn2C2OC(CO)C(O)C2O)c1=O (stereo not given)
inactive: dose: 100.0 mg/kg/injection, schedule: Q01DX003 (ip), vehicle: saline 102 % of control | dose: 200.0 mg/kg/injection, schedule: Q01DX003 (ip), vehicle: saline 94 % of control

CSc1cccc(NC(C)=O)c1
inactive: dose: 100.0 mg/kg/injection, schedule: Q01DX009 (ip), vehicle: saline 97 % of control | [1] 93 % of control | dose: 200.0 mg/kg/injection, schedule: Q01DX009 (ip), vehicle: saline 113 % of control | dose: 200.0 mg/kg/injection, schedule: Q04DX003 (ip), vehicle: saline 97 % of control | dose: 400.0 mg/kg/injection, schedule: Q01DX009 (ip), vehicle: saline 104 % of control | dose: 400.0 mg/kg/injection, schedule: Q04DX003 (ip), vehicle: saline 101 % of control

C[S+](C)Cc1ccccc1
inactive: dose: 50.0 mg/kg/injection, schedule: Q04DX003 (ip), vehicle: saline 96 % of control | dose: 100.0 mg/kg/injection, schedule: Q01DX009 (ip), vehicle: other 93 % of control | [1] 100 % of control

CC(CO)CCC(=O)C(C)C1C(=O)CC2CC3CC(O)CCC3(C)CC21C (stereo not given)
inactive: dose: 100.0 mg/kg/injection, schedule: Q01DX001 (ip), vehicle: Klucel (hydroxypropylcellulose) (HPC) 98 % of control | dose: 200.0 mg/kg/injection, schedule: Q01DX001 (ip), vehicle: Klucel (hydroxypropylcellulose) (HPC) 105 % of control | dose: 400.0 mg/kg/injection, schedule: Q01DX001 (ip), vehicle: Klucel (hydroxypropylcellulose) (HPC) 119 % of control

CCN(CC)S(=O)(=O)c1cccc(C(=O)CC(O)(C(F)(F)F)C(F)(F)F)c1
inactive: [2] 94 % of control | [3] 102 % of control | [4] 108 % of control

CCCCCc1[nH]c(=O)[nH]c(=O)c1N=Nc1ccccc1
inactive: [5] 98 % of control | [6] 97 % of control | [7] 100 % of control

CC(=O)NC(C=O)C(OC(C)=O)C(OC(C)=O)C(COC(C)=O)OC(C)=O (stereo not given)
inactive: [8] 100 % of control | [9] 107 % of control | [10] 96 % of control

N#CC(C#N)=C/C=C/C=C/c1c(Cl)cccc1Cl
inactive: [2] 92 % of control | [3] 103 % of control | [4] 105 % of control

O=C(Nc1ccc(Cl)cc1[N+](=O)[O-])Oc1ccc(Cl)cc1Cc1ccccc1
inactive: dose: 50.0 mg/kg/injection, schedule: Q04DX003 (ip), vehicle: saline with Tween-80 116 % of control | [5] 98 % of control | dose: 100.0 mg/kg/injection, schedule: Q01DX009 (ip), vehicle: saline with Tween-80 100 % of control and 87 % of control | [8] 98 % of control and 102 % of control | [2] 98 % of control and 92 % of control | [6] 93 % of control | dose: 200.0 mg/kg/injection, schedule: Q01DX009 (ip), vehicle: saline with Tween-80 94 % of control and 95 % of control | [9] 94 % of control and 98 % of control | [3] 102 % of control | [7] 91 % of control | dose: 400.0 mg/kg/injection, schedule: Q01DX009 (ip), vehicle: saline with Tween-80 94 % of control and 90 % of control | [10] 96 % of control and 98 % of control | [4] 102 % of control and 87 % of control

CC(=O)c1cc(I)c(O)c2ncccc12
inactive: dose: 6.25 mg/kg/injection, schedule: Q01DX009 (ip), vehicle: saline with Tween-80 91 % of control | dose: 6.25 mg/kg/injection, schedule: Q04DX003 (ip), vehicle: saline with Tween-80 95 % of control | dose: 12.5 mg/kg/injection, schedule: Q01DX009 (ip), vehicle: saline with Tween-80 91 % of control | dose: 12.5 mg/kg/injection, schedule: Q04DX003 (ip), vehicle: saline with Tween-80 106 % of control | dose: 25.0 mg/kg/injection, schedule: Q01DX009 (ip), vehicle: saline with Tween-80 89 % of control | dose: 25.0 mg/kg/injection, schedule: Q04DX003 (ip), vehicle: saline with Tween-80 116 % of control and 91 % of control | [2] 107 % of control

CC1(C)N=C(N)N=C(N)N1c1cccc(C(=O)c2ccccc2)c1
inactive: dose: 25.0 mg/kg/injection, schedule: Q01DX001 (ip), vehicle: saline with Tween-80 98 % of control | dose: 50.0 mg/kg/injection, schedule: Q01DX001 (ip), vehicle: saline with Tween-80 90 % of control

COC1OC2COC(c3ccccc3)OC2C(NC(C)=O)C1OS(C)(=O)=O (stereo not given)
inactive: dose: 100.0 mg/kg/injection, schedule: Q04DX002 (ip), vehicle: Klucel (hydroxypropylcellulose) (HPC) 101 % of control | dose: 200.0 mg/kg/injection, schedule: Q04DX002 (ip), vehicle: Klucel (hydroxypropylcellulose) (HPC) 101 % of control | dose: 400.0 mg/kg/injection, schedule: Q04DX002 (ip), vehicle: Klucel (hydroxypropylcellulose) (HPC) 105 % of control

O=C(/C=C/c1ccco1)c1ccc(Cl)cc1
inactive: dose: 100.0 mg/kg/injection, schedule: Q01DX009 (ip), vehicle: saline sonified 91 % of control | dose: 200.0 mg/kg/injection, schedule: Q01DX009 (ip), vehicle: saline sonified 104 % of control | dose: 400.0 mg/kg/injection, schedule: Q01DX009 (ip), vehicle: saline sonified 94 % of control

CN(Cc1ccccc1)C(=O)c1ccc(C(=O)N(C)Cc2ccccc2)cc1
inactive: dose: 100.0 mg/kg/injection, schedule: Q01DX009 (ip), vehicle: Klucel (hydroxypropylcellulose) (HPC) 97 % of control | dose: 200.0 mg/kg/injection, schedule: Q01DX009 (ip), vehicle: Klucel (hydroxypropylcellulose) (HPC) 108 % of control | dose: 400.0 mg/kg/injection, schedule: Q01DX009 (ip), vehicle: Klucel (hydroxypropylcellulose) (HPC) 102 % of control

OCC1OC(n2cnc3c(SSc4ncnc5c4ncn5C4OC(CO)C(O)C4O)ncnc32)C(O)C1O (stereo not given)
inactive: dose: 100.0 mg/kg/injection, schedule: Q01DX001 (ip), vehicle: saline 95 % of control | dose: 200.0 mg/kg/injection, schedule: Q01DX001 (ip), vehicle: saline 106 % of control | dose: 400.0 mg/kg/injection, schedule: Q01DX001 (ip), vehicle: saline 121 % of control

Source: PubChem BioAssay AID248 (DTP/NCI, 2004)
